Reference: article PMC7311426, “An amphipathic peptide with antibiotic activity against multidrug-resistant Gram-negative bacteria” (Nature Communications, 2020)
Marks after values point to notes of the source that are not given here.

Legend:
Test in all cases: microbe, parasite or virus in culture
S. enterica Typhi = S. enterica Typhi ATCC 14028 control strain, CDC 6516-60; CAMHB; mode of 6 replicates
Method in brief: (§1)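 MICs were scored by eye after 18-20 h static incubation at 37 °C, with bacteria at 5 × 10^5 CFU mL^−1 in MHB. Peptides were serially diluted 2-fold over 12 points, top 128 or 64 μg mL^−1. CAMHB (CLSI) and 1% agarose-MHB variants were also run, at least six replicates.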

S. aureus = S. aureus ATCC 25923 MSSA; MHB; mode of 6 replicates
Method in brief: as §1

A. baumannii = conditions: mode of 6 replicates
Method in brief: as §1

K. pneumoniae = conditions: mode of 6 replicates
Method in brief: as §1

E. coli = tested on: E. coli
Method in brief: as §1

P. aeruginosa = conditions: mode of 6 replicates
Method in brief: as §1

[1] = tested on: A. baumannii clinical isolates
Method in brief: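 MIC90 from CLSI broth microdilution (M07-A9) in two clinical-isolate panels. US panel (331 isolates, 2010-2012): AA139 diluted in 0.01% acetic acid/0.1% BSA. Worldwide panel (445 isolates, 2011-2013, four regions): CAMHB, with 0.002% Tween 80 added for AA139 and polymyxin B.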

[2] = A. baumannii ATCC 19636 type strain, CAMHB
[3] = A. baumannii ATCC 19636 type strain, MHB
[4] = A. baumannii Greece CI, XDR, PmxR, MHB
[5] = K. pneumoniae ATCC 13883 type strain (polymyxin/colistin heteroresistant), MHB
[6] = K. pneumoniae ATCC 700603 (K6), MDR, OXA-2/SHV-18, CAMHB
[7] = K. pneumoniae ATCC 700603 (K6), MDR, OXA-2/SHV-18, MHB
[8] = K. pneumoniae BAA-2146, MDR, ESBL, NDM-1 pos, MHB
[9] = K. pneumoniae Greece CI 8_GR_13, XDR, KPC-2, PmxR, MHB
[10] = E. coli ATCC 25922 FDA control strain, CAMHB, mode of 6 replicates
[11] = E. coli ATCC 25922 FDA control strain, MHB, mode of 6 independent biological replicates
[12] = E. coli ATCC 700926 K12 (MG1655), CAMHB, mode of 6 replicates
[13] = E. coli ATCC 700928 CFT073 UPEC, CAMHB, mode of 6 replicates
[14] = E. coli CI 12-6-83 Hong Kong, mcr-1 pos, ESBL, CAMHB, mode of 6 replicates
[15] = P. aeruginosa ATCC 27853 control strain, CAMHB
[16] = P. aeruginosa ATCC 27853 control strain, MHB
[17] = P. aeruginosa FADDI-070, MDR, PmxR, MHB/CAMHB
[18] = A. baumannii, worldwide isolates 2011-2013, n = 108

polymyxin B [PolymyxinB, reference compound]
BMD MIC (S. enterica Typhi): 0.03 µg/mL
BMD MIC (S. aureus): 128 µg/mL
BMD MIC (A. baumannii; [2]): 0.06 µg/mL
BMD MIC (A. baumannii; [3]): 0.03 µg/mL
BMD MIC (A. baumannii; [4]): 8 to 16 µg/mL
BMD MIC (K. pneumoniae; [5]): 0.5-8# μg mL-1
BMD MIC (K. pneumoniae; [6]): 0.06 µg/mL
BMD MIC (K. pneumoniae; [7]): 0.125 µg/mL
BMD MIC (K. pneumoniae; [8]): 0.125 µg/mL
BMD MIC (K. pneumoniae; [9]): 32 µg/mL
MIC against E. coli AID#172 MDR clinical isolate (E. coli; BMD): 0.03 µg/mL
BMD MIC (E. coli; [10]): 0.125 µg/mL
BMD MIC (E. coli; [11]): 0.25 µg/mL
BMD MIC (E. coli; [12]): 0.015 µg/mL
BMD MIC (E. coli; [13]): ≤0.25 µg/mL
BMD MIC (E. coli; [14]): 2 µg/mL
BMD MIC (P. aeruginosa; [15]): ≤0.25 µg/mL
BMD MIC (P. aeruginosa; [16]): 0.25 µg/mL
BMD MIC (P. aeruginosa; [17]): 32 µg/mL
Number of isolates with MIC 0.125 (MIC frequency distribution) [1]: 4
MIC50 [1, 18]: 0.03 µg/mL
MIC90 [1, 18]: 0.125 µg/mL
Number of isolates with MIC 0.03 (MIC frequency distribution) ([1]; A. baumannii, worldwide isolates 2011-2013, n = 108, count of isolates at MIC 0.03): 75
Number of isolates with MIC 0.06 (MIC frequency distribution) ([1]; A. baumannii, worldwide isolates 2011-2013, n = 108, count of isolates at MIC 0.06): 18
Number of isolates with MIC 0.25 (MIC frequency distribution) ([1]; A. baumannii, worldwide isolates 2011-2013, n = 108, count of isolates at MIC 0.25): 0
Number of isolates with MIC 0.5 (MIC frequency distribution) ([1]; A. baumannii, worldwide isolates 2011-2013, n = 108, count of isolates at MIC 0.5): 2
Number of isolates with MIC 1 (MIC frequency distribution) ([1]; A. baumannii, worldwide isolates 2011-2013, n = 108, count of isolates at MIC 1): 2
Number of isolates with MIC 2 (MIC frequency distribution) ([1]; A. baumannii, worldwide isolates 2011-2013, n = 108, count of isolates at MIC 2): 1
Number of isolates with MIC 4 (MIC frequency distribution) ([1]; A. baumannii, worldwide isolates 2011-2013, n = 108, count of isolates at MIC 4): 1
Number of isolates with MIC 8 (MIC frequency distribution) ([1]; A. baumannii, worldwide isolates 2011-2013, n = 108, count of isolates at MIC 8): 3
Number of isolates with MIC 16 (MIC frequency distribution) ([1]; A. baumannii, worldwide isolates 2011-2013, n = 108, count of isolates at MIC 16): 0
Number of isolates with MIC 32 (MIC frequency distribution) ([1]; A. baumannii, worldwide isolates 2011-2013, n = 108, count of isolates at MIC 32): 0
Number of isolates with MIC 64 (MIC frequency distribution) ([1]; A. baumannii, worldwide isolates 2011-2013, n = 108, count of isolates at MIC 64): 0
Number of isolates with MIC 128 (MIC frequency distribution) ([1]; A. baumannii, worldwide isolates 2011-2013, n = 108, count of isolates at MIC 128): 0
Number of isolates with MIC >16 (MIC frequency distribution) ([1]; A. baumannii, worldwide isolates 2011-2013, n = 108, count of isolates at MIC >16): 0
Number of isolates with MIC >32 (MIC frequency distribution) ([1]; A. baumannii, worldwide isolates 2011-2013, n = 108, count of isolates at MIC >32): 0
Number of isolates with MIC >128 (MIC frequency distribution) ([1]; A. baumannii, worldwide isolates 2011-2013, n = 108, count of isolates at MIC >128): 0
Number of isolates with MIC ≤0.015 (MIC frequency distribution) ([1]; A. baumannii, worldwide isolates 2011-2013, n = 108, count of isolates at MIC ≤0.015): 2

colistin
BMD MIC (S. enterica Typhi): 0.03 µg/mL
BMD MIC (S. aureus): >128 µg/mL
BMD MIC (A. baumannii; [2]): 0.06 µg/mL
BMD MIC (A. baumannii; [3]): 0.06 µg/mL
BMD MIC (A. baumannii; [4]): >32 µg/mL
BMD MIC (K. pneumoniae; [5]): 0.03-4# μg mL-1
BMD MIC (K. pneumoniae; [6]): 0.125 µg/mL
BMD MIC (K. pneumoniae; [7]): 0.03 µg/mL
BMD MIC (K. pneumoniae; [8]): 0.06 µg/mL
BMD MIC (K. pneumoniae; [9]): >64 µg/mL
BMD MIC (E. coli; [10]): 0.06 to 0.125 µg/mL
BMD MIC (E. coli; [11]): 0.25 µg/mL
BMD MIC (E. coli; [12]): ≤0.03 µg/mL
BMD MIC (E. coli; [13]): ≤0.25 µg/mL
BMD MIC (E. coli; [14]): 4 µg/mL
BMD MIC (P. aeruginosa; [15]): 0.125 µg/mL
BMD MIC (P. aeruginosa; [16]): 0.125 µg/mL
BMD MIC (P. aeruginosa; [17]): 64 µg/mL
MIC ([1]; US isolates 2010-2012, isolate CID 1919446, Rep 1): 2 µg/mL
MIC ([1]; US isolates 2010-2012, isolate CID 1919446, Rep 2): 1 µg/mL
MIC ([1]; US isolates 2010-2012, isolate CID 1919519, Rep 1): 1 µg/mL
MIC ([1]; US isolates 2010-2012, isolate CID 1919519, Rep 2): 0.5 µg/mL
MIC ([1]; US isolates 2010-2012, isolate CID 1919714, Rep 1): > 32 µg/mL
MIC ([1]; US isolates 2010-2012, isolate CID 1919714, Rep 2): > 32 µg/mL
MIC ([1]; US isolates 2010-2012, isolate CID 1919942, Rep 1): 2 µg/mL
MIC ([1]; US isolates 2010-2012, isolate CID 1919942, Rep 2): 2 µg/mL
MIC ([1]; US isolates 2010-2012, isolate CID 1930670, Rep 1): 4 µg/mL
MIC ([1]; US isolates 2010-2012, isolate CID 1930670, Rep 2): 2 µg/mL
MIC ([1]; US isolates 2010-2012, isolate CID 1930676, Rep 1): 4 µg/mL
MIC ([1]; US isolates 2010-2012, isolate CID 1930676, Rep 2): 2 µg/mL
MIC ([1]; US isolates 2010-2012, isolate CID 2727597, Rep 1): > 32 µg/mL
MIC ([1]; US isolates 2010-2012, isolate CID 2727597, Rep 2): 32 µg/mL
MIC ([1]; US isolates 2010-2012, isolate CID 2727598, Rep 1): 2 µg/mL
MIC ([1]; US isolates 2010-2012, isolate CID 2727598, Rep 2): 2 µg/mL
MIC ([1]; US isolates 2010-2012, isolate CID 2727898, Rep 1): 8 µg/mL
MIC ([1]; US isolates 2010-2012, isolate CID 2727898, Rep 2): 8 µg/mL
MIC ([1]; US isolates 2010-2012, isolate CID 2728115, Rep 1): 4 µg/mL
MIC ([1]; US isolates 2010-2012, isolate CID 2728115, Rep 2): 1 µg/mL
MIC ([1]; US isolates 2010-2012, isolate CID 2728119, Rep 1): 2 µg/mL
MIC ([1]; US isolates 2010-2012, isolate CID 2728119, Rep 2): 2 µg/mL
MIC ([1]; US isolates 2010-2012, isolate CID 2728650, Rep 1): 8 µg/mL
MIC ([1]; US isolates 2010-2012, isolate CID 2728650, Rep 2): 2 µg/mL
MIC ([1]; US isolates 2010-2012, isolate CID 2728663, Rep 1): 0.5 µg/mL
MIC ([1]; US isolates 2010-2012, isolate CID 2728663, Rep 2): 0.5 µg/mL
MIC ([1]; US isolates 2010-2012, isolate CID 2732481, Rep 1): > 32 µg/mL
MIC ([1]; US isolates 2010-2012, isolate CID 2732481, Rep 2): > 32 µg/mL
MIC ([1]; US isolates 2010-2012, isolate CID 2732486, Rep 1): 1 µg/mL
MIC ([1]; US isolates 2010-2012, isolate CID 2732486, Rep 2): 1 µg/mL
MIC ([1]; US isolates 2010-2012, isolate CID 2762740, Rep 1): > 32 µg/mL
MIC ([1]; US isolates 2010-2012, isolate CID 2762740, Rep 2): 32 µg/mL
MIC ([1]; US isolates 2010-2012, isolate CID 2801947, Rep 1): 1 µg/mL
MIC ([1]; US isolates 2010-2012, isolate CID 2801947, Rep 2): 0.5 µg/mL
MIC ([1]; US isolates 2010-2012, isolate CID 2801949, Rep 1): 0.25 µg/mL
MIC ([1]; US isolates 2010-2012, isolate CID 2801949, Rep 2): 0.5 µg/mL
MIC ([1]; US isolates 2010-2012, isolate CID 2802027, Rep 1): 0.5 µg/mL
MIC ([1]; US isolates 2010-2012, isolate CID 2802027, Rep 2): 1 µg/mL
MIC ([1]; US isolates 2010-2012, isolate CID 2802028, Rep 1): 0.5 µg/mL
MIC ([1]; US isolates 2010-2012, isolate CID 2802028, Rep 2): 1 µg/mL
MIC ([1]; US isolates 2010-2012, isolate CID 2802029, Rep 1): 0.5 µg/mL
MIC ([1]; US isolates 2010-2012, isolate CID 2802029, Rep 2): 0.5 µg/mL
MIC ([1]; US isolates 2010-2012, isolate CID 2802031, Rep 1): 0.5 µg/mL
MIC ([1]; US isolates 2010-2012, isolate CID 2802031, Rep 2): 0.5 µg/mL
MIC ([1]; US isolates 2010-2012, isolate CID 2802109, Rep 2): 0.5 µg/mL
MIC ([1]; US isolates 2010-2012, isolate CID 2802111, Rep 2): 0.25 µg/mL
MIC ([1]; US isolates 2010-2012, isolate CID 2802187, Rep 1): 1 µg/mL
MIC ([1]; US isolates 2010-2012, isolate CID 2802187, Rep 2): 1 µg/mL
